Experimental data from the NIST ThermoML archive (doi:10.1021/je700732u).
± gives the expanded uncertainty stated by the source.

Key:
[1] = mn = molality of the nth substance listed, in mol/kg; details: 298.15 K, 101 kPa, Liquid
[2] = cn = amount concentration of the nth substance listed, in mol/dm3; details: 298.15 K, 101 kPa, Liquid

OC[C@H]1O[C@@](CO)(O[C@H]2O[C@H](CO)[C@@H](O)[C@H](O)[C@H]2O)[C@@H](O)[C@@H]1O [D-sucrose] + O
[1]
Details	mass density [kg/m3]	viscosity [mPa·s]
m1 = 0.2	1022.17 ± 0.33	1.064 ± 0.026
m1 = 0.4	1045.26 ± 0.41	1.277 ± 0.031
m1 = 0.6	1066.44 ± 0.48	1.533 ± 0.037
m1 = 0.8	1086.04 ± 0.55	1.843 ± 0.044
m1 = 1	1104.2 ± 0.61	2.241 ± 0.053
m1 = 1.2	1121.03 ± 0.68	2.638 ± 0.062

[Cl][Cu][Cl] [copper chloride] + O
[1]
Details	mass density [kg/m3]
m1 = 0.0498	1003.12 ± 0.27
m1 = 0.09962	1009.1 ± 0.29
m1 = 0.1992	1020.92 ± 0.33
m1 = 0.2988	1032.58 ± 0.37
m1 = 0.498	1055.47 ± 0.46

O=S(=O)([O-])[O-].[Cu+2] [copper sulfate] + O
Details	mass density [kg/m3]	viscosity [mPa·s]
[1], m1 = 0.05	1005.22 ± 0.18	–
[1], m1 = 0.1	1013.29 ± 0.2	–
[1], m1 = 0.2	1029.16 ± 0.26	–
[1], m1 = 0.3	1044.87 ± 0.31	–
[1], m1 = 0.4	1060.4 ± 0.37	–
[1], m1 = 0.5	1075.78 ± 0.43	–
[2], c1 = 0.04986	–	0.9222 ± 0.023
[2], c1 = 0.09974	–	0.9516 ± 0.024
[2], c1 = 0.1995	–	1.013 ± 0.025
[2], c1 = 0.2991	–	1.083 ± 0.027
[2], c1 = 0.3987	–	1.147 ± 0.028
[2], c1 = 0.4981	–	1.223 ± 0.03

[Cl-].[Cl-].[Mg+2] [magnesium chloride] + O
[1]
Details	mass density [kg/m3]
m1 = 0.09998	1004.88 ± 0.22
m1 = 0.2001	1012.54 ± 0.24
m1 = 0.4002	1027.51 ± 0.28
m1 = 0.5	1034.83 ± 0.3

O=S(=O)([O-])[O-].[Mg+2] [magnesium sulfate] + O
Details	mass density [kg/m3]	viscosity [mPa·s]
[1], m1 = 0.05	1003.14 ± 0.18	–
[1], m1 = 0.1	1009.13 ± 0.19	–
[1], m1 = 0.2	1020.83 ± 0.23	–
[1], m1 = 0.3	1032.43 ± 0.27	–
[1], m1 = 0.4	1043.79 ± 0.31	–
[1], m1 = 0.5	1055.11 ± 0.35	–
[2], c1 = 0.04787	–	0.9216 ± 0.023
[2], c1 = 0.09971	–	0.9527 ± 0.024
[2], c1 = 0.1994	–	1.016 ± 0.025
[2], c1 = 0.2989	–	1.083 ± 0.027
[2], c1 = 0.3983	–	1.155 ± 0.028
[2], c1 = 0.4976	–	1.234 ± 0.03

[Cl-].[Na+] [sodium chloride] + O
[1]
Details	mass density [kg/m3]
m1 = 0.04999	999.11 ± 0.27
m1 = 0.09999	1001.16 ± 0.27
m1 = 0.1999	1005.2 ± 0.28
m1 = 0.2999	1009.2 ± 0.29
m1 = 0.4002	1013.17 ± 0.3

O=S(=O)([O-])[O-].[Na+].[Na+] [sodium sulfate] + O
[1]
Details	mass density [kg/m3]
m1 = 0.09205	1008.69 ± 0.29
m1 = 0.2001	1021.99 ± 0.33
m1 = 0.3	1034.01 ± 0.37
m1 = 0.3999	1045.81 ± 0.42
m1 = 0.5001	1057.44 ± 0.46
